Experimental data: PubChem BioAssay AID1918940 (Molecular Pharmacology Branch, DTP, NCI, 2023)

Tested on: NCI-H211 complex spheroid viability
Experiment: Anticancer human tumor NCI-H211 cell line growth inhibition [LSD1];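 further: luminescent viability read after seven days of drug exposure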;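 on viability, T/C: 100% = DMSO vehicle control viability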
Details: for IC50: curve of first compound; for viability, T/C: stronger effect = lower value
How it was run: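 Multicellular complex spheroids of tumor cells with human endothelial cells (HUVEC) and mesenchymal stem cells; the LSD1 inhibitor iadademstat was combined with standard-of-care or investigational agents. Top concentration at or near clinical Cmax, half-log dilutions; final DMSO ≤0.25%.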

[1] = second compound 0.1 µM, first compound 0.00316 µM
[2] = second compound 0.1 µM, first compound 0.01 µM
[3] = second compound 0.1 µM, first compound 0.0316 µM
[4] = second compound 0.1 µM, first compound 0.1 µM
[5] = second compound 0.1 µM, first compound 0.316 µM
[6] = second compound 0.1 µM, first compound 1 µM
[7] = second compound 0.316 µM, first compound 0.00316 µM
[8] = second compound 0.316 µM, first compound 0.01 µM
[9] = second compound 0.316 µM, first compound 0.0316 µM
[10] = second compound 0.316 µM, first compound 0.1 µM
[11] = second compound 0.316 µM, first compound 0.316 µM
[12] = second compound 0.316 µM, first compound 1 µM
[13] = second compound 1 µM, first compound 0.00316 µM
[14] = second compound 1 µM, first compound 0.01 µM
[15] = second compound 1 µM, first compound 0.0316 µM
[16] = second compound 1 µM, first compound 0.1 µM
[17] = second compound 1 µM, first compound 0.316 µM
[18] = second compound 1 µM, first compound 1 µM
[19] = second compound 3.16 µM, first compound 0.00316 µM
[20] = second compound 3.16 µM, first compound 0.01 µM
[21] = second compound 3.16 µM, first compound 0.0316 µM
[22] = second compound 3.16 µM, first compound 0.1 µM
[23] = second compound 3.16 µM, first compound 0.316 µM
[24] = second compound 3.16 µM, first compound 1 µM
[25] = second compound 10 µM, first compound 0.00316 µM
[26] = second compound 10 µM, first compound 0.01 µM
[27] = second compound 10 µM, first compound 0.0316 µM
[28] = second compound 10 µM, first compound 0.1 µM
[29] = second compound 10 µM, first compound 0.316 µM
[30] = second compound 10 µM, first compound 1 µM

`O=C(C=Cn1cnc(-c2cc(C(F)(F)F)cc(C(F)(F)F)c2)n1)NNc1cnccn1` + NC1CC1c1ccc(-c2cccc(O)c2)cc1 showed an IC50 (second compound 0.1 µM) of under 3.16 nM, an IC50 (second compound 0.316 µM) of under 3.16 nM and an IC50 (second compound 1 µM) of under 3.16 nM. For the same molecule, the IC50 (second compound 3.16 µM) was under 3.16 nM, the IC50 (second compound 10 µM) was under 3.16 nM and the viability, T/C [1] was 45.6%. The viability, T/C [2] was 35.5%, the viability, T/C [3] was 16.3% and the viability, T/C [4] was 6.54%. For the same molecule, the viability, T/C [5] was 2.54%, the viability, T/C [6] was 2.3% and the viability, T/C [7] was 29.8%. For the same molecule, the viability, T/C [8] was 29%, the viability, T/C [9] was 14.4% and the viability, T/C [10] was 6.98%. The viability, T/C [11] was 2.61%, the viability, T/C [12] was 2.22% and the viability, T/C [13] was 38.4%. It also gave a viability, T/C [14] of 32.6%, a viability, T/C [15] of 12.8% and a viability, T/C [16] of 6.89%. For the same molecule, the viability, T/C [17] was 3.1%, the viability, T/C [18] was 2.61% and the viability, T/C [19] was 47.7%. It also gave a viability, T/C [20] of 29.5%, a viability, T/C [21] of 16.6% and a viability, T/C [22] of 7.35%. For the same molecule, the viability, T/C [23] was 3.74%, the viability, T/C [24] was 2.99% and the viability, T/C [25] was 40.6%. For the same molecule, the viability, T/C [26] was 28.6%, the viability, T/C [27] was 17.8% and the viability, T/C [28] was 9.12%. For the same molecule, the viability, T/C [29] was 3.24% and the viability, T/C [30] was 3.79%.
`COc1cc(C2c3cc4c(cc3C(OC3OC5COC(C)OC5C(O)C3O)C3COC(=O)C23)OCO4)cc(OC)c1O` (stereo not given) + NC1CCC(NC2CC2c2ccccc2)CC1 gave an IC50 (second compound 0.1 µM) of 9.89 nM, an IC50 (second compound 0.316 µM) of 9.92 nM and an IC50 (second compound 1 µM) of under 9.49 nM. It also gave an IC50 (second compound 3.16 µM) of under 9.49 nM, an IC50 (second compound 10 µM) of under 9.49 nM and a viability, T/C (second compound 0.1 µM, first compound 0.00949 µM) of 51.4%. The viability, T/C (second compound 0.1 µM, first compound 0.03 µM) was 14.5%, the viability, T/C (second compound 0.1 µM, first compound 0.0949 µM) was 2.21% and the viability, T/C (second compound 0.1 µM, first compound 0.3 µM) was 5.34%. The viability, T/C (second compound 0.1 µM, first compound 0.949 µM) was 1.9%, the viability, T/C (second compound 0.1 µM, first compound 3 µM) was 2.19% and the viability, T/C (second compound 0.316 µM, first compound 0.00949 µM) was 51.7%. For the same molecule, the viability, T/C (second compound 0.316 µM, first compound 0.03 µM) was 12.7%, the viability, T/C (second compound 0.316 µM, first compound 0.0949 µM) was 1.66% and the viability, T/C (second compound 0.316 µM, first compound 0.3 µM) was 2.34%. The viability, T/C (second compound 0.316 µM, first compound 0.949 µM) was 2.35%, the viability, T/C (second compound 0.316 µM, first compound 3 µM) was 2.14% and the viability, T/C (second compound 1 µM, first compound 0.00949 µM) was 46.1%. For the same molecule, the viability, T/C (second compound 1 µM, first compound 0.03 µM) was 11.6%, the viability, T/C (second compound 1 µM, first compound 0.0949 µM) was 2.2% and the viability, T/C (second compound 1 µM, first compound 0.3 µM) was 2.36%. The viability, T/C (second compound 1 µM, first compound 0.949 µM) was 2.33%, the viability, T/C (second compound 1 µM, first compound 3 µM) was 2.08% and the viability, T/C (second compound 3.16 µM, first compound 0.00949 µM) was 42.2%. For the same molecule, the viability, T/C (second compound 3.16 µM, first compound 0.03 µM) was 10.5%, the viability, T/C (second compound 3.16 µM, first compound 0.0949 µM) was 2.02% and the viability, T/C (second compound 3.16 µM, first compound 0.3 µM) was 2.37%. For the same molecule, the viability, T/C (second compound 3.16 µM, first compound 0.949 µM) was 1.62%, the viability, T/C (second compound 3.16 µM, first compound 3 µM) was 1.85% and the viability, T/C (second compound 10 µM, first compound 0.00949 µM) was 18.9%. It also gave a viability, T/C (second compound 10 µM, first compound 0.03 µM) of 4.24%, a viability, T/C (second compound 10 µM, first compound 0.0949 µM) of 0.87% and a viability, T/C (second compound 10 µM, first compound 0.3 µM) of 0.66%. It also gave a viability, T/C (second compound 10 µM, first compound 0.949 µM) of 0.79% and a viability, T/C (second compound 10 µM, first compound 3 µM) of 0.69%.
Molecule `Nc1ncn(C2CC(O)C(CO)O2)c(=O)n1` (stereo not given) + NC1CCC(NC2CC2c2ccccc2)CC1 has an IC50 (second compound 0.1 µM) of under 3.16 nM, an IC50 (second compound 0.316 µM) of under 3.16 nM and an IC50 (second compound 1 µM) of under 3.16 nM. For the same molecule, the IC50 (second compound 3.16 µM) was under 3.16 nM, the IC50 (second compound 10 µM) was under 3.16 nM and the viability, T/C [1] was 26.7%. It also gave a viability, T/C [2] of 17.8%, a viability, T/C [3] of 7.44% and a viability, T/C [4] of 3.11%. For the same molecule, the viability, T/C [5] was 1.96%, the viability, T/C [6] was 1.81% and the viability, T/C [7] was 35%. For the same molecule, the viability, T/C [8] was 16%, the viability, T/C [9] was 9.7% and the viability, T/C [10] was 2.44%. The viability, T/C [11] was 1.9%, the viability, T/C [12] was 1.78% and the viability, T/C [13] was 33%. It also gave a viability, T/C [14] of 16.2%, a viability, T/C [15] of 7.52% and a viability, T/C [16] of 3.4%. For the same molecule, the viability, T/C [17] was 1.88%, the viability, T/C [18] was 1.32% and the viability, T/C [19] was 29.3%. For the same molecule, the viability, T/C [20] was 17.8%, the viability, T/C [21] was 6.93% and the viability, T/C [22] was 2.47%. It also gave a viability, T/C [23] of 1.82%, a viability, T/C [24] of 1.39% and a viability, T/C [25] of 11.7%. It also gave a viability, T/C [26] of 5.2%, a viability, T/C [27] of 2.56% and a viability, T/C [28] of 0.89%. For the same molecule, the viability, T/C [29] was 0.77% and the viability, T/C [30] was 0.61%.
